System: patients having hormone refractory prostate cancer (HRPCa)
Experiment: Health-related quality-adjusted time-to-progression (QATTP) of disease, Kaplan-Meier product limit analysis, randomized placebo-controlled study
Format: in vivo, human
Protocol: The health-related QATTP of disease model for this invention expresses progression-free time as an equally preferable amount of time spent in full health. This is achieved by using patient-reported health-related QoL, as measured for the duration of observation or progression-free interval, to weight progression-free time. […] Patients received treatment with 10 mg (N=89) or 2.5 mg (N=95) of atrasentan or placebo (N=104) until experiencing a clinical event indicative of disease progression such as palliative opiate treatment of new bone or visceral pain, palliative radiation treatment of new bone pain, or new tumor growth symptoms requiring intervention or treatment with chemotherapy. Patient-reported health-related QoL data were collected with the EORTC QLQ-30 and the FACT-G and FACT-P, both of which were administered at baseline, at six week intervals and at each patient's final visit. The results from the 10 mg and 2.5 mg treatment groups are reported relative to the placebo group. A patient's transformed domain score and total score from both the EORTC QLQ-30 and FACT were used to weight the time-to-progression outcome data. Transformed domain scores ranged between 0 and 1, so the reported health-related QATTP of disease outcome was never larger than the actual time-to-progression. Each patient's health-related QATTP of disease was computed as the sum of the health-related QoL weights multiplied by the duration for which that patient experienced that health-related QoL. If a patient experienced a clinical event between two health-related QoL assessments, the set of health-related QoL domain scores immediately prior to the event were carried forward to the time of the clinical event. The mean and median health-related QATTP of disease outcomes were then estimated using Kaplan-Meier product limit methodology (Journal of the American Statistical Association, vol. 53, 1958, pp 457-481). The area under a Kaplan-Meier survival curve conveys an estimated mean health-related QATTP of disease. This analysis was applied to both intent-to-treat and per protocol population data. All health-related QATTP of disease comparisons between atrasentan and placebo treatment groups were based on a log-rank test with statistical significance at an α of 0.05. Results of the Kaplan-Meier product limit survival method analysis are reported in TABLE 2 (Intent to Treat) and TABLE 3 (Per Protocol Population). Mean and median health-related QATTP of disease are shown by treatment group. Log-rank tests comparing the differences between treatment groups are also reported.

[1] = EORTC Physical Functioning, 10 mg, intent to treat
[2] = EORTC Physical Functioning, 10 mg, per protocol
[3] = EORTC Role Functioning, 2.5 mg, intent to treat
[4] = EORTC Role Functioning, 2.5 mg, per protocol
[5] = EORTC Role Functioning, 10 mg, intent to treat
[6] = EORTC Role Functioning, 10 mg, per protocol
[7] = EORTC Sleep Disturbance, 2.5 mg, intent to treat
[8] = EORTC Sleep Disturbance, 2.5 mg, per protocol
[9] = EORTC Sleep Disturbance, 10 mg, intent to treat
[10] = EORTC Sleep Disturbance, 10 mg, per protocol
[11] = EORTC Social Functioning, 2.5 mg, intent to treat
[12] = EORTC Social Functioning, 2.5 mg, per protocol
[13] = EORTC Social Functioning, 10 mg, intent to treat
[14] = EORTC Social Functioning, 10 mg, per protocol
[15] = FACT Emotional Well Being, 2.5 mg, intent to treat
[16] = FACT Emotional Well Being, 2.5 mg, per protocol
[17] = FACT Emotional Well Being, 10 mg, intent to treat
[18] = FACT Emotional Well Being, 10 mg, per protocol
[19] = FACT Functional Well Being, 2.5 mg, intent to treat
[20] = FACT Functional Well Being, 2.5 mg, per protocol
[21] = FACT Functional Well Being, 10 mg, intent to treat
[22] = FACT Functional Well Being, 10 mg, per protocol
[23] = FACT Physical Well Being, 2.5 mg, intent to treat
[24] = FACT Physical Well Being, 2.5 mg, per protocol
[25] = FACT Physical Well Being, 10 mg, intent to treat
[26] = FACT Physical Well Being, 10 mg, per protocol
[27] = FACT Social/Family Well Being, 2.5 mg, intent to treat
[28] = FACT Social/Family Well Being, 2.5 mg, per protocol
[29] = FACT Social/Family Well Being, 10 mg, intent to treat
[30] = FACT Social/Family Well Being, 10 mg, per protocol
[31] = FACT Total, 2.5 mg, intent to treat
[32] = FACT Total, 2.5 mg, per protocol
[33] = FACT Total, 10 mg, intent to treat
[34] = FACT Total, 10 mg, per protocol
[35] = FACT-G, 2.5 mg, intent to treat
[36] = FACT-P, 2.5 mg, intent to treat

`CCCCN(CCCC)C(=O)CN1C[C@H](c2ccc3c(c2)OCO3)[C@@H](C(=O)O)[C@@H]1c1ccc(OC)cc1` [atrasentan, (2R,3R,4S)-2-(4-methoxyphenyl)-4-(1,3-benzodioxol-5-yl)-1-(((N,N-dibutylamino)carbonyl)methyl)pyrrolidine-3-carboxylic acid] was tested, and the “QATTP of Disease Median” value (EORTC Physical Functioning, 2.5 mg, per protocol) was 124 days, the “QATTP of Disease Mean” value [1] was 164 days and the “QATTP of Disease Median” value [1] was 119 days. The “QATTP of Disease Mean” value [2] was 168 days, the “QATTP of Disease Median” value [2] was 127 days and the “QATTP of Disease Mean” value [3] was 176 days. The “QATTP of Disease Median” value [3] was 128 days, the “QATTP of Disease Mean” value [4] was 185 days and the “QATTP of Disease Median” value [4] was 142 days. For the same molecule, the “QATTP of Disease Mean” value [5] was 180 days, the “QATTP of Disease Median” value [5] was 123 days and the “QATTP of Disease Mean” value [6] was 187 days. For the same molecule, the “QATTP of Disease Median” value [6] was 128 days, the “QATTP of Disease Mean” value [7] was 172 days and the “QATTP of Disease Median” value [7] was 127 days. The “QATTP of Disease Mean” value [8] was 179 days, the “QATTP of Disease Median” value [8] was 137 days and the “QATTP of Disease Mean” value [9] was 158 days. For the same molecule, the “QATTP of Disease Median” value [9] was 123 days, the “QATTP of Disease Mean” value [10] was 162 days and the “QATTP of Disease Median” value [10] was 127 days. The “QATTP of Disease Mean” value [11] was 184 days, the “QATTP of Disease Median” value [11] was 142 days and the “QATTP of Disease Mean” value [12] was 192 days. The “QATTP of Disease Median” value [12] was 156 days, the “QATTP of Disease Mean” value [13] was 190 days and the “QATTP of Disease Median” value [13] was 135 days. The “QATTP of Disease Mean” value [14] was 196 days, the “QATTP of Disease Median” value [14] was 141 days and the “QATTP of Disease Mean” value [15] was 180 days. For the same molecule, the “QATTP of Disease Median” value [15] was 133 days, the “QATTP of Disease Mean” value [16] was 188 days and the “QATTP of Disease Median” value [16] was 147 days. The “QATTP of Disease Mean” value [17] was 163 days, the “QATTP of Disease Median” value [17] was 127 days and the “QATTP of Disease Mean” value [18] was 168 days. For the same molecule, the “QATTP of Disease Median” value [18] was 131 days, the “QATTP of Disease Mean” value [19] was 161 days and the “QATTP of Disease Median” value [19] was 111 days. The “QATTP of Disease Mean” value [20] was 168 days, the “QATTP of Disease Median” value [20] was 111 days and the “QATTP of Disease Mean” value [21] was 140 days. The “QATTP of Disease Median” value [21] was 98 days, the “QATTP of Disease Mean” value [22] was 144 days and the “QATTP of Disease Median” value [22] was 113 days. For the same molecule, the “QATTP of Disease Mean” value [23] was 181 days, the “QATTP of Disease Median” value [23] was 135 days and the “QATTP of Disease Mean” value [24] was 191 days. For the same molecule, the “QATTP of Disease Median” value [24] was 148 days, the “QATTP of Disease Mean” value [25] was 184 days and the “QATTP of Disease Median” value [25] was 127 days. The “QATTP of Disease Mean” value [26] was 190 days, the “QATTP of Disease Median” value [26] was 130 days and the “QATTP of Disease Mean” value [27] was 160 days. For the same molecule, the “QATTP of Disease Median” value [27] was 126 days, the “QATTP of Disease Mean” value [28] was 169 days and the “QATTP of Disease Median” value [28] was 143 days. The “QATTP of Disease Mean” value [29] was 147 days, the “QATTP of Disease Median” value [29] was 121 days and the “QATTP of Disease Mean” value [30] was 151 days. The “QATTP of Disease Median” value [30] was 126 days, the “QATTP of Disease Mean” value [31] was 166 days and the “QATTP of Disease Median” value [31] was 125 days. The “QATTP of Disease Mean” value [32] was 174 days, the “QATTP of Disease Median” value [32] was 135 days and the “QATTP of Disease Mean” value [33] was 152 days. The “QATTP of Disease Median” value [33] was 117 days, the “QATTP of Disease Mean” value [34] was 157 days and the “QATTP of Disease Median” value [34] was 127 days. For the same molecule, the “QATTP of Disease Mean” value [35] was 172 days, the “QATTP of Disease Median” value [35] was 129 days and the “QATTP of Disease Mean” value (FACT-G, 2.5 mg, per protocol) was 180 days. The “QATTP of Disease Median” value (FACT-G, 2.5 mg, per protocol) was 143 days, the “QATTP of Disease Mean” value (FACT-G, 10 mg, intent to treat) was 160 days and the “QATTP of Disease Median” value (FACT-G, 10 mg, intent to treat) was 123 days. The “QATTP of Disease Mean” value (FACT-G, 10 mg, per protocol) was 165 days, the “QATTP of Disease Median” value (FACT-G, 10 mg, per protocol) was 130 days and the “QATTP of Disease Mean” value [36] was 152 days. For the same molecule, the “QATTP of Disease Median” value [36] was 115 days, the “QATTP of Disease Mean” value (FACT-P, 2.5 mg, per protocol) was 160 days and the “QATTP of Disease Median” value (FACT-P, 2.5 mg, per protocol) was 117 days. The “QATTP of Disease Mean” value (FACT-P, 10 mg, intent to treat) was 135 days, the “QATTP of Disease Median” value (FACT-P, 10 mg, intent to treat) was 107 days and the “QATTP of Disease Mean” value (FACT-P, 10 mg, per protocol) was 139 days. For the same molecule, the “QATTP of Disease Median” value (FACT-P, 10 mg, per protocol) was 111 days, the “health-related QATTP over placebo” value (both 10 mg and 2.5 mg, per protocol population, after adjusting for health-related QoL effects) was “longer” and the “mean health-related QATTP's of disease” value (data in TABLE 3, both 10 mg and 2.5 mg treatment groups) was “both delays and improvement”. The “differences in the QATTP across treatment groups” value (intent-to-treat population) was “no statistically significant differences”.

— US20030092757A1, “Favorable modulation of health-related quality of life and health-related quality-adjusted time-to-progression of disease in patients with prostate cancer” (priority 2001, published 2003)
